Measurements as given in patent US3984547A, “Veterinary feedstuffs” (Bayer Aktiengesellschaft, priority 1971, dated 1976).
≈ marks a conversion by molar mass, not a printed value. Like-named read-outs stand apart in the source and are kept apart here.

Tests used:
Escherichia coli C 165 = experiment: ED100 in mice after intraperitoneal infection, Table 3; format: in vivo; details: read-out: effective 100% dose (ED100)
Procedure: In animal experiments on mice, the effective 100% dose (ED100) in mg/Kg was determined for certain compounds of the invention after intraperitoneal infection and subcutaneous (s.c.) or oral (p.o.) administration of the preparation.

Mycoplasma gallisepticum = experiment: MIC, series dilution test (PPLO medium); format: cell-based; details: Mycoplasmoides gallisepticum, 37° C, 18, 24 and 48 h, read-out: minimal inhibitory concentrations (MIC)
Procedure: (§1) For the compound of Example 3, the following minimal inhibitory concentrations (MIC) (γ/ml of nutrient medium) were measured by the series dilution test (PPLO medium), incubation temperature 37° C, determination after 18, 24 and 48 hours.

Mycoplasma bovirhinis = experiment: MIC, series dilution test (PPLO medium); format: cell-based; details: 37° C, 18, 24 and 48 h, read-out: minimal inhibitory concentrations (MIC)
Procedure: as §1

Mycoplasma granularum = experiment: MIC, series dilution test (PPLO medium); format: cell-based; details: Acholeplasma granularum, 37° C, 18, 24 and 48 h, read-out: minimal inhibitory concentrations (MIC)
Procedure: as §1

[1] = test system: Pseudomonas aeruginosa Bonn; experiment: MIC in vitro, plate test (agar), Table 1; format: cell-based; details: about 37° C, readings 24 and 48 h
Procedure: The minimum inhibitory concentrations in vitro for some of the new compounds shown in Table 1 (MIC) were determined by the plate test in an agar medium of the following composition: |proteose peptone 10.0 g per liter |5.1 × 10^3 germs were inoculated per plate. […]. Readings were taken after 24 and 48 hours, and the incubation temperature was about 37° C.

Row | MIC (Mycoplasma gallisepticum) [µg/mL] | MIC (Mycoplasma bovirhinis) [µg/mL] | MIC (Mycoplasma granularum) [µg/mL] | MIC [1] [µg/mL] | Structure (SMILES) | ED100 (Escherichia coli C 165; C165, oral (p.c. [sic])) [mg/kg] | ED100 (Escherichia coli C 165; C165, sc, s.c.) [mg/kg]
1 | 100 (≈ 405 µM) | 200 (≈ 809 µM) | 25 (≈ 101 µM) |  | CN=Cc1c(C(=O)O)[n+]([O-])c2ccccc2[n+]1[O-] [Example 3] | 100 | 50
2 |  |  |  |  | O=C(O)c1c(C=NCCO)[n+]([O-])c2ccccc2[n+]1[O-] [Example 8] | 100 | 50
3 |  |  |  | 100 (≈ 403 µM) | NN=Cc1c(C(=O)O)[n+]([O-])c2ccccc2[n+]1[O-] [Example 10] |  | 
